Assay results from patent US7858765B2, “OX40R binding agents” (Merck Serono SA, priority 2002, dated 2010).
Peptide text beside a SMILES is read from it.

What was measured:
OX40R-IgG1 = molecular target: T1, OX40R-IgG1 (Homo sapiens, UniProt P43489); assay: Fluorescence quenching assay of OX40R-IgG1; type: binding
T1 construct: extracellular portion of human OX40R (amino acids 1-208 of SWISSPROT Acc. No P43489); human IgG1 constant region (hinge, CH2 and CH3); made in house; purified from the supernatant on protein G
T1 sequence (P43489 29-208): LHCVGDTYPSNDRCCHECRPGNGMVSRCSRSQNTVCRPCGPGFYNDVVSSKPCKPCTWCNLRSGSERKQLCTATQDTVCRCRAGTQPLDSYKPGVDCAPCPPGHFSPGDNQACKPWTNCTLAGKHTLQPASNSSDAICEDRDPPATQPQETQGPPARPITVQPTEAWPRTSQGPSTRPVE
Procedure: The fluorescence quenching assay was performed as previously described (Golabek A et al., 2000). OX40R-IgG1 (35 micrograms) was dissolved in 500 microliters of PBS and the fluorescence spectum was recorded at 295-420 nanometers with an excitation wavelength of 290 nanometers using a spectrofluorimeter (Perkin Elmer LS50B) with the slits set at 5 nanometers. Fluorescence spectra of human OX40R-IgG1 were then recorded in the presence of increasing concentrations (5-1000 nM) of P5 and P5-1 peptides after 15 minutes of equilibration. The fluorescence change at 336 nanometers was plotted versus peptide concentration and the resulting curves were analyzed by nonlinear regression fit with Prism® software (GraphPad).
The affinity of the peptides identified in Example 1 as inhibitor of OX40L-OX40R interaction was evaluated by fluorescence quenching spectroscopy, a technology allowing such measurements in solution, under native conditions and without beads or other supports. This method is based on monitoring the changes in the intrinsic fluorescence of a protein (OX40R-IgG1) upon its binding with another protein (P5 or P5-1). […]

[1] = molecular target: T2, OX40L-OX40R interaction (OX40R-IgG1 / OX40L-CD8) (Homo sapiens, UniProt P43489); assay: Alphascreen-based competition assay (displacement of OX40L-CD8 from OX40R-IgG1); type: binding; settings: for inhibition of binding of OX40R to OX40L (in words): Alphascreen-based competition assay
T2 sequence (P43489 29-208): T1 sequence (P43489 29-208)
Procedure: Alphascreen™ modified acceptor and donor beads were purchased (Biosignal Packard). OX40R-IgG1 and OX40L-CD8 fusion proteins were immobilized, respectively, onto protein A-conjugated acceptor beads and, by the means of a biotinylated anti-CD8 antibody, onto streptavidin-conjugated donor beads.
The binding assay was performed using Costar® 384-well white polystyrene plates (Corning). Each well of a 384-well plate contained a reaction mix having a volume of 25 microliters. Each of the five components of the reaction mix (OX40R-IgG1, OX40L-CD8, biotinylated anti-CD8, streptavidin-conjugated donor beads, and Protein A-conjugated acceptor beads) was added in a volume of 5 microliters. All dilutions were made in assay buffer (Phosphate Buffer Saline and 0.1% BSA), with or without dimethyl sulfoxide (DMSO).
In the standard assay, OX40-IgG1 and OX40L-CD8 were incubated together for 30 minutes, and then biotinylated anti-CD8 antibody (10 nM) was added. Following another incubation period of 30 minutes, streptavidin donor beads (20 μg/ml) and Protein A acceptor beads (20 μg/ml) were added to each individual well. The plate was counted 1 hour later using a Packard Fusion™ reader (Biosignal Packard) set at a read time of 1 second/well. Owing to the light sensitivity of the donor and acceptor beads, the experiments were carried out under blue light and all incubation periods were performed at room temperature. The plate was read at an excitation wavelength of 680 nanometers combined with a shorter emission wavelength of 520-620 nanometers.
All KD, IC50 and EC50 values were calculated using Prism® software (Graphpad Software). The transformation of IC50 values into Ki values was performed using the Cheng-Prusoff equation (Cheng Y C and Prusoff W H, 1973).
The ability of two known competitors of OX40L-OX40R interactions (untagged recombinant human soluble OX40L and suramin), which are themselves unable to generate an Alphascreen™ signal in this assay in absence of OX40L-CD8, to displace OX40L-CD8 from OX40R-IgG1 was investigated. The displacement experiments were performed, taking into consideration the approximate KD value, with a concentration of OX40L-CD8 (40 nM) that was 4 times greater than that of the OX40R-IgG1 (10 nM). Increasing concentrations of OX40L (3 μM-0.1 pM) or suramin (1 mM[…]1 nM) were added to a reaction mixture also containing OX40-IgG1 (10 nM) and OX40L-CD8 (40 nM). […] This latter value for suramin is similar to reported values for inhibition of TNF-α binding to the TNF receptor (Gray P W et al., 1990).
The soluble components (OX40-IgG1, OX40L-CD8 and biotinylated anti-CD8 antibody) were mixed at the concentration described before for the competition assays with OX40L and suramin (FIG. 4), together with various concentrations of each peptide in a 5 microliter volume into a first addition step. The streptavidin donor and Protein A acceptor beads were added 30 minutes later. The plates were incubated for 2 hours in the dark, at room temperature and with shaking, before reading at a long excitation wavelength of 680 nm combined with a shorter emission wavelength of 520-620 nanometers, as described in Example 1.

OX40R = molecular target: T3, OX40R (Homo sapiens, UniProt P43489); settings: literature value; read-out: Kd of OX40L (homotrimer) for OX40R; cited from earlier work
T3 sequence (P43489 29-277): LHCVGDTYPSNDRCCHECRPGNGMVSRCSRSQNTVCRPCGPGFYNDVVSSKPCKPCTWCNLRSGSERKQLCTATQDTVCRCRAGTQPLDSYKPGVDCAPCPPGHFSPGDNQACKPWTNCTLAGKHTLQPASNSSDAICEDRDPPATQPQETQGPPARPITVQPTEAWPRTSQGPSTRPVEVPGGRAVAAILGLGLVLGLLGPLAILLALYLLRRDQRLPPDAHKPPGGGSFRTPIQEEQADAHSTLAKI

CC[C@H](C)[C@H](NC(=O)[C@H](CC(N)=O)NC(=O)[C@@H](NC(=O)[C@H](CCC(=O)O)NC(=O)[C@H](CCC(N)=O)NC(=O)[C@H](CO)NC(=O)[C@H](Cc1ccccc1)NC(=O)[C@H](Cc1ccc(O)cc1)NC(=O)CN)C(C)C)C(=O)N[C@@H](CO)C(=O)O [P5-1, GYFSQEVNIS] (H-GYFSQEVNIS-OH; N-terminus and C-terminus assumed)
Kd (OX40R-IgG1): ~0.0246 µM

CC[C@H](C)[C@H](N)C(=O)N[C@H](C(=O)N[C@@H](CC(N)=O)C(=O)N[C@@H](CS)C(=O)N[C@@H](CC(=O)O)C(=O)NCC(=O)N[C@@H](Cc1ccccc1)C(=O)N[C@@H](Cc1ccc(O)cc1)C(=O)N[C@@H](CC(C)C)C(=O)N[C@H](C(=O)N[C@@H](CO)C(=O)N[C@@H](CC(C)C)C(=O)N[C@@H](CCCCN)C(=O)NCC(=O)N[C@@H](Cc1ccc(O)cc1)C(=O)N[C@@H](Cc1ccccc1)C(=O)N[C@@H](CO)C(=O)N[C@@H](CCC(N)=O)C(=O)N[C@@H](CCC(=O)O)C(=O)N[C@H](C(=O)N[C@@H](CC(N)=O)C(=O)N[C@H](C(=O)N[C@@H](CO)C(=O)N[C@@H](CC(C)C)C(=O)N[C@@H](Cc1c[nH]cn1)C(=O)N[C@@H](Cc1ccc(O)cc1)C(=O)N[C@@H](CCC(N)=O)C(=O)N[C@@H](CCCCN)C(=O)N[C@@H](CC(=O)O)C(=O)N[C@@H](CCC(=O)O)C(=O)N[C@@H](CCC(=O)O)C(=O)O)[C@@H](C)CC)C(C)C)[C@@H](C)CC)[C@@H](C)CC [P5] (H-IINCDGFYLISLKGYFSQEVNISLHYQKDEE-OH; N-terminus and C-terminus assumed)
inhibition of binding of OX40R to OX40L (in words) [1]: micromolar range

Cc1ccc(C(=O)Nc2ccc(S(=O)(=O)O)c3cc(S(=O)(=O)O)cc(S(=O)(=O)O)c23)cc1NC(=O)c1cccc(NC(=O)Nc2cccc(C(=O)Nc3cc(C(=O)Nc4ccc(S(=O)(=O)O)c5cc(S(=O)(=O)O)cc(S(=O)(=O)O)c45)ccc3C)c2)c1 [suramin, Suramin, reference compound]
IC50 ([1]; OX40-IgG1 10 nM, OX40L-CD8 40 nM, read-out: IC50 for competition of OX40L-CD8 binding): 79 µM | Ki ([1]; OX40-IgG1 10 nM, OX40L-CD8 40 nM, read-out: Ki (Cheng-Prusoff from IC50)): 26.3 µM

EKGFILTSQKEDEIMKVQNNSVIINCDGFYL (human OX40R binding peptides) [P4, peptide corresponding to amino acids 72-102 of human OX40L]
inhibition of binding of OX40R to OX40L (in words) [1]: bind OX40R very poorly

OX40L: recombinant human soluble OX40L, extracellular portion, prepared as GST fusion in baculovirus system; b9 value is for natural homotrimer
-log IC50±SEM ([1]; OX40-IgG1 10 nM, OX40L-CD8 40 nM): 8.23±0.35 | Kd (OX40R): 0.0002 to 0.0004 µM
